The text below walks through data of PubChem BioAssay (NCI).

Structures are written as SMILES.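 96-well plates; 48 h exposure; 5 concentrations. Endpoints by linear interpolation between flanking doses. Not reached: highest tested concentration assigned. GI50 marks 50% less growth. At the TGI there is no net growth.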

Some test systems named below: HOP-92 NSCLC; HS 578T breast; SF-539 CNS; SK-OV-3 ovarian; PC-3 prostate; SNB-19 CNS; UACC-257 melanoma.
Holding throughout (test): growth of human tumour cells (NCI), 48 h

In the case of `CO/N=C(/C)c1cccc(Nc2cc(-n3nnc4ccccc43)nc3ccccc23)c1`, the GI50 is 3.98 µM with HOP-92 NSCLC; 42.8 µM in the assay on HS 578T breast; 45.5 µM with SF-539 CNS; greater than 100 µM in the assay with SK-OV-3 ovarian; 8.64 µM in the assay with PC-3 prostate; 30.2 µM in the assay on SNB-19 CNS. The GI50 in the assay with UACC-257 melanoma was 87.5 µM. Also, the TGI was 37.4 µM in the assay with HOP-92 NSCLC; greater than 100 µM with HS 578T breast; greater than 100 µM with SF-539 CNS; greater than 100 µM in the assay with SK-OV-3 ovarian; 61.9 µM in the assay on PC-3 prostate; greater than 100 µM in the assay on SNB-19 CNS. In addition, the TGI with UACC-257 melanoma was greater than 100 µM.
On to `NC(N)=N/N=C/c1c(-c2ccsc2)nc2sccn12`, for which the GI50 with SF-539 CNS was 18.3 µM; with SK-OV-3 ovarian, 14.3 µM; with PC-3 prostate, 13.2 µM; in the assay with SNB-19 CNS it was 16.7 µM; in the assay on UACC-257 melanoma, 22.3 µM. Besides, the TGI is 34.2 µM in the assay on SF-539 CNS; 30.3 µM in the assay with SK-OV-3 ovarian; 26 µM with PC-3 prostate; 32.6 µM with SNB-19 CNS; 41.1 µM in the assay on UACC-257 melanoma.
Regarding `Cc1cc(Nc2ccc(NC(=O)c3ccc(Nc4ccnc5ccccc45)cc3)cc2)nc(N)n1`, the GI50 with HOP-92 NSCLC is 2.13 µM; in the assay on HS 578T breast it was 5.79 µM; with SK-OV-3 ovarian, 7.15 µM; in the assay with UACC-257 melanoma, 21.8 µM. The TGI in the assay with HOP-92 NSCLC is 6.59 µM; in the assay with HS 578T breast it was greater than 100 µM; with SK-OV-3 ovarian, 54.8 µM; in the assay with UACC-257 melanoma, 87.7 µM.
For `CNCc1ccccc1-c1csc([C@@H](C)Nc2nc(C)nc3cc(OC)c(OC)cc23)c1`, the GI50 with SF-539 CNS is 1.5 µM; with SK-OV-3 ovarian it was 4.67 µM; with PC-3 prostate, 4.01 µM; in the assay on SNB-19 CNS, 1.84 µM; in the assay on UACC-257 melanoma, 1.82 µM. The TGI was 2.94 µM in the assay with SF-539 CNS; 18.8 µM with SK-OV-3 ovarian; 12.3 µM with PC-3 prostate; 6.69 µM in the assay on SNB-19 CNS; 3.51 µM with UACC-257 melanoma.
As for `CC[As](CC)SC[C@H](C)C(=O)N1CCC[C@H]1C(=O)O`, the GI50 with HOP-92 NSCLC was 0.0177 µM; in the assay with SF-539 CNS, 0.0291 µM; in the assay on SK-OV-3 ovarian it was 0.326 µM; in the assay on PC-3 prostate it was 0.106 µM; in the assay on UACC-257 melanoma, 0.282 µM. In addition, the TGI with HOP-92 NSCLC was found to be 0.0933 µM; in the assay on SF-539 CNS, 0.136 µM; in the assay with SK-OV-3 ovarian it was 1.05 µM; in the assay on PC-3 prostate, 0.589 µM; with UACC-257 melanoma, 1.48 µM.
`COc1ccc(/C=C\[N+](=O)[O-])cc1OC`: the GI50 in the assay on HOP-92 NSCLC was 12.4 µM; in the assay with HS 578T breast, 2.92 µM; in the assay with SK-OV-3 ovarian, 13.4 µM; in the assay on PC-3 prostate it was 3.01 µM; in the assay on SNB-19 CNS it was 9.75 µM; in the assay with UACC-257 melanoma, 0.919 µM. The TGI with HOP-92 NSCLC stood at 48.4 µM; with HS 578T breast, 24.7 µM; in the assay with SK-OV-3 ovarian it was 26.2 µM; in the assay on PC-3 prostate, 8.85 µM; with SNB-19 CNS, 25.1 µM; in the assay with UACC-257 melanoma it was 3.38 µM.
On to `NC(=S)N/N=C/C(=O)O`, for which the GI50 with HS 578T breast is greater than 100 µM; in the assay on SF-539 CNS it was greater than 100 µM; with SK-OV-3 ovarian, greater than 100 µM; with PC-3 prostate, 67.7 µM; with SNB-19 CNS it was greater than 100 µM; in the assay with UACC-257 melanoma, 30.1 µM. In addition, the TGI in the assay with HS 578T breast, in the assay on SF-539 CNS, in the assay with SK-OV-3 ovarian, with PC-3 prostate, in the assay with SNB-19 CNS and with UACC-257 melanoma was greater than 100 µM in each case.
Take `Nc1ccc([N+](=O)[O-])cc1N=C/C=C/c1ccccc1`: the GI50 with SF-539 CNS was 21.7 µM; in the assay with SK-OV-3 ovarian it was 26.5 µM; with PC-3 prostate, 7.67 µM; in the assay with SNB-19 CNS it was 31.5 µM; in the assay with UACC-257 melanoma it was 47.7 µM. In addition, the TGI with SF-539 CNS, in the assay with SK-OV-3 ovarian, in the assay with PC-3 prostate, with SNB-19 CNS and in the assay with UACC-257 melanoma was greater than 100 µM in each case.
For the compound `CCOC(=O)C(C#N)C1=CC(=O)C(=O)c2ccc(OC)cc21` (configuration not stated), the TGI with HS 578T breast was determined as 53.4 µM; with SF-539 CNS it was 33.5 µM; in the assay on SK-OV-3 ovarian, 56.7 µM; in the assay with PC-3 prostate it was 77 µM; in the assay with SNB-19 CNS, 54.8 µM; in the assay on UACC-257 melanoma it was 31.1 µM.
On to `CSc1nc(=O)n(CCC#N)nc1SC`, for which the TGI in the assay with HS 578T breast, with SF-539 CNS, with SK-OV-3 ovarian, with PC-3 prostate and in the assay on SNB-19 CNS was greater than 100 µM each time.
On to `CC(C)C1=CC23CCC4C(C)(C(=O)O)CCCC4(C)C2CC1C1C(=O)N(c2ccc(Cc4ccc(N5C(=O)C6C7CC8C9(C)CCCC(C)(C(=O)O)C9CCC8(C=C7C(C)C)C6C5=O)cc4)cc2)C(=O)C13` (configuration not stated), for which the TGI in the assay on HOP-92 NSCLC turned out to be 36.8 µM; with HS 578T breast it was 32.8 µM; with SF-539 CNS, 20.1 µM; in the assay on PC-3 prostate, 15.7 µM; with SNB-19 CNS, 17.9 µM.
